According to PubChem BioAssay (NCI):
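Interpolation was linear, between the two tested concentrations surrounding the appropriate level; five concentrations were tested over 48 hours in 96-well plates. Definition used: TGI = concentration required for complete inhibition of growth.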

Tests used:
Assay in all cases: NCI anticancer screen, dose series, 48 h
DU-145 prostate = system: DU-145 prostate
SK-MEL-2 melanoma = system: SK-MEL-2 melanoma
XF 498 CNS = system: XF 498 CNS
SF-295 CNS = system: SF-295 CNS
KM12 colon = system: KM12 colon
MDA-MB-231 breast = system: MDA-MB-231 breast
SW-620 colon = system: SW-620 colon
SK-OV-3 ovarian = system: SK-OV-3 ovarian
DMS 273 small cell lung = system: DMS 273 small cell lung
OVCAR-4 ovarian = system: OVCAR-4 ovarian
DMS 114 small cell lung = system: DMS 114 small cell lung
HOP-18 NSCLC = system: HOP-18 NSCLC
LOX IMVI melanoma = system: LOX IMVI melanoma
HS 578T breast = system: HS 578T breast
NCI-H226 lung = system: NCI-H226 lung
KM20L2 colon = system: KM20L2 colon
HOP-92 NSCLC = system: HOP-92 NSCLC
M19-MEL melanoma = system: M19-MEL melanoma
RXF 393 renal = system: RXF 393 renal
A549 NSCLC = system: A549 NSCLC
EKVX NSCLC = system: EKVX NSCLC
MDA-N = system: MDA-N
RXF-631 renal = system: RXF-631 renal
SF-539 CNS = system: SF-539 CNS
LXFL 529 NSCLC = system: LXFL 529 NSCLC
HOP-62 NSCLC = system: HOP-62 NSCLC
OVCAR-3 ovarian = system: OVCAR-3 ovarian
CCRF-CEM leukemia = system: CCRF-CEM leukemia
HCT-15 colon = system: HCT-15 colon
SNB-75 CNS = system: SNB-75 CNS
RPMI-8226 leukemia = system: RPMI-8226 leukemia
HT29 colon = system: HT29 colon
MOLT-4 leukemia = system: MOLT-4 leukemia
SK-MEL-28 melanoma = system: SK-MEL-28 melanoma
HCC-2998 colon = system: HCC-2998 colon
T-47D breast = system: T-47D breast
U251 CNS = system: U251 CNS
SNB-78 CNS = system: SNB-78 CNS
TK-10 renal = system: TK-10 renal
MCF7 breast = system: MCF7 breast
MDA-MB-435 = system: MDA-MB-435
SR leukemia = system: SR leukemia
786-0 renal = system: 786-0 renal
DLD-1 colon = system: DLD-1 colon
SF-268 CNS = system: SF-268 CNS
M14 melanoma = system: M14 melanoma
SNB-19 CNS = system: SNB-19 CNS
HCT-116 colon = system: HCT-116 colon
PC-3 prostate = system: PC-3 prostate
NCI-H460 lung = system: NCI-H460 lung
NCI/ADR-RES ovarian = system: NCI/ADR-RES ovarian
UACC-257 melanoma = system: UACC-257 melanoma
NCI-H522 lung = system: NCI-H522 lung
OVCAR-5 ovarian = system: OVCAR-5 ovarian
OVCAR-8 ovarian = system: OVCAR-8 ovarian
SN12C renal = system: SN12C renal
NCI-H23 lung = system: NCI-H23 lung
ACHN renal = system: ACHN renal
COLO 205 colon = system: COLO 205 colon
MALME-3M melanoma = system: MALME-3M melanoma
HL-60(TB) leukemia = system: HL-60(TB) leukemia
CAKI-1 renal = system: CAKI-1 renal
SK-MEL-5 melanoma = system: SK-MEL-5 melanoma
K-562 leukemia = system: K-562 leukemia
UO-31 renal = system: UO-31 renal
A498 renal = system: A498 renal
UACC-62 melanoma = system: UACC-62 melanoma
BT-549 breast = system: BT-549 breast
IGROV1 ovarian = system: IGROV1 ovarian

Work on CS(=O)(=O)Nc1ccc(Nc2c3ccccc3nc3ccccc23)cc1 yielded a TGI (DU-145 prostate) of over 23.1 µM, a TGI (SK-MEL-2 melanoma) of 16.1 µM and a TGI (XF 498 CNS) of 14.9 µM. For the same molecule, the TGI (SF-295 CNS) was 14.6 µM, the TGI (KM12 colon) was 24.7 µM and the TGI (MDA-MB-231 breast) was 17.8 µM. It also gave a TGI (SW-620 colon) of 19.9 µM, a TGI (SK-OV-3 ovarian) of 16.1 µM and a TGI (DMS 273 small cell lung) of 14.3 µM. It also gave a TGI (OVCAR-4 ovarian) of 17.4 µM, a TGI (DMS 114 small cell lung) of 17 µM and a TGI (HOP-18 NSCLC) of 15 µM. For the same molecule, the TGI (LOX IMVI melanoma) was 13.9 µM, the TGI (HS 578T breast) was 49.3 µM and the TGI (NCI-H226 lung) was 7.14 µM. For the same molecule, the TGI (KM20L2 colon) was 18.8 µM, the TGI (HOP-92 NSCLC) was 24.2 µM and the TGI (M19-MEL melanoma) was 15 µM. The TGI (RXF 393 renal) was 23.3 µM, the TGI (A549 NSCLC) was 10.1 µM and the TGI (EKVX NSCLC) was 29.6 µM. The TGI (MDA-N) was 37 µM, the TGI (RXF-631 renal) was 16.9 µM and the TGI (SF-539 CNS) was 20.2 µM. For the same molecule, the TGI (LXFL 529 NSCLC) was 18.7 µM, the TGI (HOP-62 NSCLC) was 13 µM and the TGI (OVCAR-3 ovarian) was 18.7 µM. It also gave a TGI (CCRF-CEM leukemia) of 26.4 µM, a TGI (HCT-15 colon) of 23.5 µM and a TGI (SNB-75 CNS) of 19.1 µM. It also gave a TGI (RPMI-8226 leukemia) of 31 µM, a TGI (HT29 colon) of 20.5 µM and a TGI (MOLT-4 leukemia) of 10.4 µM. The TGI (SK-MEL-28 melanoma) was 20.7 µM, the TGI (HCC-2998 colon) was 27 µM and the TGI (T-47D breast) was 21 µM. The TGI (U251 CNS) was 13.8 µM, the TGI (SNB-78 CNS) was 28.7 µM and the TGI (TK-10 renal) was 9.52 µM. It also gave a TGI (MCF7 breast) of 13 µM, a TGI (MDA-MB-435) of 33.7 µM and a TGI (SR leukemia) of 3.83 µM. The TGI (786-0 renal) was 17.8 µM, the TGI (DLD-1 colon) was 24.7 µM and the TGI (SF-268 CNS) was 24.5 µM. The TGI (M14 melanoma) was 17.5 µM, the TGI (SNB-19 CNS) was 20.3 µM and the TGI (HCT-116 colon) was 15 µM. For the same molecule, the TGI (PC-3 prostate) was 19.3 µM, the TGI (NCI-H460 lung) was 6.95 µM and the TGI (NCI/ADR-RES ovarian) was 41.8 µM. For the same molecule, the TGI (UACC-257 melanoma) was 8.44 µM, the TGI (NCI-H522 lung) was 13.7 µM and the TGI (OVCAR-5 ovarian) was 21 µM. For the same molecule, the TGI (OVCAR-8 ovarian) was 32.6 µM, the TGI (SN12C renal) was 17.1 µM and the TGI (NCI-H23 lung) was 25.8 µM. The TGI (ACHN renal) was 2.69 µM, the TGI (COLO 205 colon) was 21 µM and the TGI (MALME-3M melanoma) was 12.2 µM. For the same molecule, the TGI (HL-60(TB) leukemia) was 9.19 µM, the TGI (CAKI-1 renal) was 6.94 µM and the TGI (SK-MEL-5 melanoma) was 10.4 µM. It also gave a TGI (K-562 leukemia) of 21.2 µM, a TGI (UO-31 renal) of 12.5 µM and a TGI (A498 renal) of 16.3 µM. The TGI (UACC-62 melanoma) was 9 µM, the TGI (BT-549 breast) was 39.4 µM and the TGI (IGROV1 ovarian) was 18.9 µM.
